The text below walks through data of patent US11559057B2, “Insecticidal mixtures of bifenthrin and chlorantraniliprole” (FMC CORPORATION, priority 2019, dated 2023).

Assay type in all cases: in vivo
Experiment [1] concerns S. frugiperda laboratory strain (susceptible). Description: Example 5C ratio study, mortality and Colby synergy, laboratory strain (protocol G). As to conditions: Spodoptera frugiperda, 96 hours. On the procedure:
(§1) Ratios of bifenthrin to chlorantraniliprole were evaluated on various crops and target pests as indicated in the protocol disclosed Table 5A below where “Lab.” Refers to laboratory, “No. of Treat.” refers to number of treatments, and Total refers to the total number of insects tested. In each evaluation, foliar application was done, the insecticide action was contact/ingestion and 32 insects were evaluated in each treatment.
(§2) The treatment schedule shown in Table 5B was used where “dose” refers to application rate, “ratio” refers to the ratio of bifenthrin to chlorantraniliprole on an a.i. basis.
(§3) Treatments were applied inside a sprayer chamber simulating a volume of 200 l/ha over soybean plants. After a drying period, treated leaves were removed from the plants and placed inside 16 well trays containing agar solution (2%) covered with filter paper. Two 16 well trays were prepared for each treatment (32 larvae/treatment). One 3rd instar larva from laboratory strains was placed in each well over the treated leaf. Trays were kept under controlled conditions of 25° C., photoperiod of 14:10 hours, and 60% RH. Morality was evaluated after 96 hours. Mortality is defined as dead and moribund larvae.
(§4) Synergy or antagonism was determined using the Colby Equation where: E=X+(100−X)(Y)/100)=X+Y−X*Y/100. X is the observed result for compound A at p grams a.e./ha. Y is the observed result for compound B at q grams a.e./ha. E is the expected result for a mixture of A and B at (p+q) g a.i./ha if there is no synergy or antagonism. If the observed value for the combination of A and B is greater than E (Obs>E) then synergy is indicated. If the observed value for the combination of A and B is less than E (Obs<E) then antagonism is indicated.
(§5) Morality on S. frugiperda was evaluated according to protocols G and H (refer to Table 5B), but where two S. frugiperda strains were tested: a laboratory strain (susceptible) and a field strain in F3 generation sampled in the 2018/2019 season in Sinop-MT region using treatment numbers 5.1 to 5.10 (refer to Table 5B). The results are reported in Tables 5E (Laboratory Strain) and 5F (Filed Strain).

Experiment [2] relates to S. frugiperda field strain. Description: Example 5C ratio study, mortality and Colby synergy, field strain (protocol H). On the procedure:
as §1, §2, §3, §4, §5

The subject of another experiment is H. armigera 3rd instar. Description: Example 5B ratio study, treated leaf bioassay, mortality and Colby synergy (protocol B). The protocol:
as §1, §2, §3, §4
Morality on H. armigera was evaluated according to protocol B (refer to Table 5B) using treatment numbers 5.1 to 5.13 (refer to Table 5B).

Experiment [3] has as its system D. melachantus 3rd instar nymphs. The experiment in a line: Example 5E ratio study, mortality and Colby synergy, nymphs (protocol E). As to conditions: statement for D. melacanthus (nymphs and adults, protocols E and F). On the procedure: as §1, §2, §4
(§6) Morality on E. heros was evaluated according to protocols C and D (refer to Table 5B). […] Mortality was evaluated after 72 hours. […]
Morality on D. melachantus was evaluated according to protocols E and F (refer to Table 5B). […]

In another experiment the test system is C. includens 3rd instar. The experiment in a line: Example 5A ratio study, treated leaf bioassay, mortality and Colby synergy (protocol A). As to conditions: at 7.5 g a.i./ha. On the procedure: as §1, §2
Treatments were applied inside a sprayer chamber simulating a volume of 200 l/ha over soybean plants. After a drying period, treated leaves were removed from the plants and placed inside 16 well trays containing agar solution (2%) covered with filter paper. […] Morality was evaluated after 96 hours. […]
Synergy or antagonism was determined using the Colby Equation where: E=X+(100−X)(Y)/100)=X+Y−X*Y/100. […]
Morality on C. includens was evaluated according to protocol A (refer to Table 5B) using treatment numbers 5.1, 5.3, 5.5 to 5.8 and 5.10 to 5.13 (refer to Table 5B). The results are reported in Table 5C below where mortality is the mean mortality, the E value was calculated by the Colby equation, and the synergy value is determined by dividing the mean mortality (%) by the expected value (E).

Experiment [4] relates to E. heros 3rd instar nymphs. Description: Example 5D ratio study on soybean plants, mortality and Colby synergy, nymphs (protocol C). As to conditions: statement for E. heros (nymphs and adults, protocols C and D). The protocol:
as §1, §2, §4, §6

Structures are written as SMILES.

`Cc1c(COC(=O)[C@@H]2[C@H](/C=C(\Cl)C(F)(F)F)C2(C)C)cccc1-c1ccccc1` (racemic) [Bifenthrin, 2-methylbiphenyl-3-ylmethyl (Z)-(1RS)-cis-3-(2-chloro-3,3,3-trifluoroprop-1-enyl)-2,2-dimethyl cyclopropanecarboxylate]: the mortality at 10 g/ha in experiment [1] (Bifenthrin 10 g a.i./ha) stood at 34.4%; in experiment [2] (Spodoptera frugiperda, Bifenthrin 10 g a.i./ha, 96 hours), 3.1%; in the experiment with H. armigera 3rd instar (Helicoverpa armigera, Bifenthrin 10 g a.i./ha, 96 hours), 0%. The mortality at 15 g/ha was found to be 53.1% in experiment [1] (Bifenthrin 15 g a.i./ha); 3.1% in experiment [2] (Spodoptera frugiperda, Bifenthrin 15 g a.i./ha, 96 hours); 0% with H. armigera 3rd instar (Helicoverpa armigera, Bifenthrin 15 g a.i./ha, 96 hours). In addition, the mortality at 30 g/ha was 78.1% in experiment [1] (Bifenthrin 30 g a.i./ha); 15.6% in experiment [2] (Spodoptera frugiperda, Bifenthrin 30 g a.i./ha, 96 hours); 0% in the experiment with H. armigera 3rd instar (Helicoverpa armigera, Bifenthrin 30 g a.i./ha, 96 hours). The mortality at 45 g/ha in experiment [1] (Bifenthrin 45 g a.i./ha) was 96.9%; in experiment [2] (Spodoptera frugiperda, Bifenthrin 45 g a.i./ha, 96 hours), 43.8%; in the experiment on H. armigera 3rd instar (Helicoverpa armigera, Bifenthrin 45 g a.i./ha, 96 hours) it was 0%. Further, the mortality at 60 g/ha in experiment [1] (Bifenthrin 60 g a.i./ha) was 93.8%; in experiment [2] (Spodoptera frugiperda, Bifenthrin 60 g a.i./ha, 96 hours), 43.8%; in the experiment on H. armigera 3rd instar (Helicoverpa armigera, Bifenthrin 60 g a.i./ha, 96 hours) it was 9.4%. The “control of S. frugiperda” value in experiment [2] (lower doses of bifenthrin, especially on the field strain) is reported as “lower control”. Besides, the “control of H. armigera” value in the experiment with H. armigera 3rd instar (even at a higher dose of 60 g a.i./ha, H. armigera resistance to pyrethroids) is “lower control”.
`CNC(=O)c1cc(Cl)cc(C)c1NC(=O)c1cc(Br)nn1-c1ncccc1Cl` [Chlorantraniliprole, 5-bromo-N-[4-chloro-2-methyl-6-(methylcarbamoyl)phenyl]-2-(3-chloropyridin-2-yl)pyrazole-3-carboxamide]: the mortality at 5 g/ha is 96.9% in experiment [1] (Chlorantraniliprole 5 g a.i./ha); 40.6% in experiment [2] (Spodoptera frugiperda, Chlorantraniliprole 5 g a.i./ha, 96 hours); 84.4% with H. armigera 3rd instar (Helicoverpa armigera, Chlorantraniliprole 5 g a.i./ha, 96 hours). The mortality at 7.5 g/ha in experiment [1] (Chlorantraniliprole 7.5 g a.i./ha) was 100%; in experiment [2] (Spodoptera frugiperda, Chlorantraniliprole 7.5 g a.i./ha, 96 hours) it was 59.4%; in the experiment with H. armigera 3rd instar (Helicoverpa armigera, Chlorantraniliprole 7.5 g a.i./ha, 96 hours) it was 100%. For the same compound, in experiment [3], the “control of D. melacanthus” value is recorded as “did not control”. In addition, in the experiment with H. armigera 3rd instar (at 7.5 g a.i./ha), the H. armigera control entry is given as “most effective”. Also, the “control of C. includens” value with C. includens 3rd instar was “most effective”. For the same compound, the “control of E. heros” value in experiment [4] is given as “did not control”.
